# PMC8364686, “Safety, tolerability, pharmacokinetics and pharmacodynamics of single oral doses of BI 187004, an inhibitor of 11beta-hydroxysteroid dehydrogenase-1, in healthy male volunteers with overweight or obesity” (Clinical Diabetes and Endocrinology, 2021)
# Experiment: Plasma pharmacokinetics of BI 187004 after single oral doses (LC–MS/MS)
# Details: male, human, plasma, po; for concentration at 6 h: planned time 6 h; for concentration at 8 h: planned time 8 h; for concentration at 10 h: planned time 10 h; for concentration at 12 h: planned time 12 h; for concentration at 36 h: planned time 36 h; for concentration at 48 h: planned time 48 h; for concentration at 72 h: planned time 72 h; for concentration at 96 h: planned time 96 h; for concentration at 0.5 h: planned time 0.5 h; for concentration at 1 h: planned time 1 h; for concentration at 1.5 h: planned time 1.5 h; for concentration at 2 h: planned time 2 h; for concentration at 2.5 h: planned time 2.5 h; for concentration at 3 h: planned time 3 h; for concentration at 4 h: planned time 4 h; for concentration at 5 h: planned time 5 h
# [1] = 20 mg, BI 187004 plasma concentrations, 20 mg single oral, gMean
# [2] = 20 mg, BI 187004 plasma concentrations, 20 mg single oral, Max
# [3] = 20 mg, BI 187004 plasma concentrations, 20 mg single oral, Mean
# [4] = 20 mg, BI 187004 plasma concentrations, 20 mg single oral, Median
# [5] = 20 mg, BI 187004 plasma concentrations, 20 mg single oral, Min
# [6] = 40 mg, BI 187004 plasma concentrations, 40 mg single oral, Max
# [7] = 40 mg, BI 187004 plasma concentrations, 40 mg single oral, Mean
# [8] = 40 mg, BI 187004 plasma concentrations, 40 mg single oral, Median
# [9] = 40 mg, BI 187004 plasma concentrations, 40 mg single oral, Min
# [10] = 40 mg, BI 187004 plasma concentrations, 40 mg single oral, gMean
# [11] = 40 mg, BI 187004 plasma concentrations, 40 mg single oral, individual subjects
structure (smiles),measurement,setting,value
N#Cc1ccc2c(c1)[C@H]1CCCN(C(=O)c3ccc4[nH]cnc4c3)[C@H]1C2 [BI 187004],concentration at 6 h,[1],547 nM
same,concentration at 8 h,[2],645 nM
same,concentration at 8 h,[3],464 nM
same,concentration at 8 h,[4],398 nM
same,concentration at 8 h,[5],354 nM
same,concentration at 8 h,[1],449 nM
same,concentration at 8 h,"20 mg, BI 187004 plasma concentrations, 20 mg single oral, individual subjects",645 nM
same,concentration at 10 h,[2],529 nM
same,concentration at 10 h,[3],398 nM
same,concentration at 10 h,[4],398 nM
same,concentration at 10 h,[5],253 nM
same,concentration at 10 h,[1],382 nM
same,concentration at 12 h,[2],457 nM
same,concentration at 12 h,[3],331 nM
same,concentration at 12 h,[4],311 nM
same,concentration at 12 h,[5],221 nM
same,concentration at 12 h,[1],316 nM
same,concentration at 24 h,"20 mg, BI 187004 plasma concentrations, 20 mg single oral, planned time 24 h, Max",353 nM
same,concentration at 24 h,"20 mg, BI 187004 plasma concentrations, 20 mg single oral, planned time 24 h, Mean",187 nM
same,concentration at 24 h,"20 mg, BI 187004 plasma concentrations, 20 mg single oral, planned time 24 h, Median",155 nM
same,concentration at 24 h,"20 mg, BI 187004 plasma concentrations, 20 mg single oral, planned time 24 h, Min",85.8 nM
same,concentration at 24 h,"20 mg, BI 187004 plasma concentrations, 20 mg single oral, planned time 24 h, gMean",161 nM
same,concentration at 36 h,[2],145 nM
same,concentration at 36 h,[3],67.3 nM
same,concentration at 36 h,[4],51.1 nM
same,concentration at 36 h,[5],27.8 nM
same,concentration at 36 h,[1],55.4 nM
same,concentration at 48 h,[2],104 nM
same,concentration at 48 h,[3],45.6 nM
same,concentration at 48 h,[4],34.4 nM
same,concentration at 48 h,[5],15.8 nM
same,concentration at 48 h,[1],35.9 nM
same,concentration at 72 h,[2],43.9 nM
same,concentration at 72 h,[3],20.5 nM
same,concentration at 72 h,[4],16.4 nM
same,concentration at 72 h,[5],6.98 nM
same,concentration at 72 h,[1],16.5 nM
same,concentration at 96 h,[2],18.2 nM
same,concentration at 96 h,[3],10.4 nM
same,concentration at 96 h,[4],9.48 nM
same,concentration at 96 h,[5],5.78 nM
same,concentration at 96 h,[1],9.42 nM
same,concentration at 24 h,"20 mg, C24 gMean (%gCV), 20 mg single oral dose",161 nM
same,AUC(0-inf),40 mg,25.9 µM·h
same,AUC(0-t),40 mg,19.9 µM·h
same,Cmax,40 mg,2210 nM
same,Tmax,40 mg,1 h
same,Vd/F,40 mg,123 L
same,half-life,40 mg,18.9 h
same,concentration at 0.5 h,[6],2530 nM
same,concentration at 0.5 h,[7],1760 nM
same,concentration at 0.5 h,[8],1980 nM
same,concentration at 0.5 h,[9],487 nM
same,concentration at 0.5 h,[10],1520 nM
same,concentration at 1 h,[6],2820 nM
same,concentration at 1 h,[7],2170 nM
same,concentration at 1 h,[8],2410 nM
same,concentration at 1 h,[9],974 nM
same,concentration at 1 h,[10],2050 nM
same,concentration at 1.5 h,[6],2610 nM
same,concentration at 1.5 h,[7],1950 nM
same,concentration at 1.5 h,[8],2160 nM
same,concentration at 1.5 h,[9],1020 nM
same,concentration at 1.5 h,[10],1870 nM
same,concentration at 2 h,[6],2410 nM
same,concentration at 2 h,[7],1760 nM
same,concentration at 2 h,[8],1860 nM
same,concentration at 2 h,[9],1040 nM
same,concentration at 2 h,[10],1700 nM
same,concentration at 2.5 h,[6],2180 nM
same,concentration at 2.5 h,[7],1750 nM
same,concentration at 2.5 h,[8],1870 nM
same,concentration at 2.5 h,[9],1160 nM
same,concentration at 2.5 h,[10],1710 nM
same,concentration at 2.5 h,[11],2180 nM
same,concentration at 3 h,[6],1810 nM
same,concentration at 3 h,[7],1530 nM
same,concentration at 3 h,[8],1560 nM
same,concentration at 3 h,[9],1130 nM
same,concentration at 3 h,[10],1510 nM
same,concentration at 3 h,[11],1680 nM
same,concentration at 4 h,[6],1700 nM
same,concentration at 4 h,[7],1460 nM
same,concentration at 4 h,[8],1530 nM
same,concentration at 4 h,[9],1020 nM
same,concentration at 4 h,[10],1440 nM
same,concentration at 4 h,[11],1640 nM
same,concentration at 5 h,[6],1610 nM
same,concentration at 5 h,[7],1320 nM
same,concentration at 5 h,[8],1350 nM
same,concentration at 5 h,[9],888 nM
same,concentration at 5 h,[10],1290 nM
same,concentration at 5 h,[11],1440 nM
same,concentration at 6 h,[6],1400 nM
same,concentration at 6 h,[7],1120 nM
same,concentration at 6 h,[8],1130 nM
same,concentration at 6 h,[9],736 nM
same,concentration at 6 h,[10],1090 nM
same,concentration at 6 h,[11],1230 nM
same,concentration at 8 h,[6],1190 nM
same,concentration at 8 h,[7],951 nM
same,concentration at 8 h,[8],987 nM
same,concentration at 8 h,[9],606 nM
same,concentration at 8 h,[10],929 nM
same,concentration at 8 h,[11],1000 nM
